The values that follow come from patent US20040072915A1, “Novel medicines based on sesquiterpene mixtures” (priority 2000, published 2004).

Structures are written as SMILES.

For the assay, the system named is MCF7 cells. The assay can be described thus: Cell counts of MCF7 cells in culture with F, B or F+B (Example 1). It counts as cell-based. On the procedure: Cells of line MCF7 are rapidly growing mammary adenocarcinoma cells. The doses tested in the study were 0.1.10^-3 and 0.5.10^-3 M. 1/100 dilutions were made in RPMT just before use and mixed to obtain a homogeneous emulsion at the moment of use. The mean number of cells inoculated was about 10^6 in each test. Test one: search for an effect on MCF7 cells at the dose of 0.5 mM. At the 11th transfer, the following were inoculated one bottle of MCF7 cells for growth, one bottle of MCF7 cells for the control, one bottle with the same number of calls +(F) at 0.5 mM, one bottle with the same number of cells +(F+B) at 0.5 mM, one bottle with the same number of cells +(B) at 0.5 mM. Bottles were placed in the incubator with caps unscrewed and the medium was changed every two days. On day 8, the cells were washed with 5 ml of PBS and freed from the substrate with PBS-EDTA, […] of RPMI+10% FCS and counted with a Malassez counting chamber. Test two: search of an effect on MCF7 cells at a dose of 0.1 mM. Same procedure as above is used but cells were used at the 12th transfer, using 0.1 mM doses of (F), (F+B) and (B).

[1] abbreviates: test one, dose 0.5 mM, MCF7 cells counted on day 8, about 10^6 cells inoculated.

In the case of `CC(C)=CCC[C@](C)(O)[C@@H]1CC=C(C)CC1` [B, α-bisabolol], the “appearance of the culture bottle (adhering / floating dead cells)” value (“appearance … (adhering / floating dead cells)” for short) was “few adhering cells and a large numbers of floating (dead) cells” (test one, 0.5 mM, MCF7); “adhering homogeneous layer of cells with several dead cells” (test two, 0.1 mM, MCF7). In addition, the cell counts reads like this: under setting [1], 250 · 10^3; (test two (test at 0.1 mM), line printed as B at 0.5 mM) 8930 · 10^3. The “alteration of cell adherence in culture” value (test run at 0.1 mM, MCF7) is “slight”.

Regarding `CC(C)=CCCC(C)=CCCC(C)=CCO` [F, Farnesol], the “appearance … (adhering / floating dead cells)” value (test one, 0.5 mM, MCF7) is “few adhering cells and a large number of floating (dead) cells”; the “appearance … (adhering / floating dead cells)” value (test two, 0.1 mM, MCF7) is “few adhering cells and a large numbers of floating (dead) cells”. In addition, the cell counts is, setting by setting: under setting [1], 370 · 10^3; (test two, dose 0.1 mM, MCF7 cells counted on day 8, about 10^6 cells inoculated) 385 · 10^3.
